Article PMC3267046 (Structure(London, England:1993), 2012)

Experiments:
Type in all cases: binding
nfa18080 = target: T1, nfa18080 (Nocardia farcinica, UniProt Q5YYT7); experiment: crystal structure, […] Å
T1 construct: gene NFA_18080; full-length (density starts at residue 5)
T1 sequence (Q5YYT7 1-144): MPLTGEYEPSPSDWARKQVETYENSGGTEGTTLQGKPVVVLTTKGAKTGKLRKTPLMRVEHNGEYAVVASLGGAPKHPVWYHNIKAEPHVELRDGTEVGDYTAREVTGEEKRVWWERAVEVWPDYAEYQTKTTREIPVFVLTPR

nfa33440 = target: T2, nfa33440 (Nocardia farcinica, UniProt Q5YUF0); experiment: cocrystal structure, […] Å; HSQC NMR
T2 construct: gene NFA_33440; full-length (density starting at residue 6)
T2 sequence (Q5YUF0 1-147): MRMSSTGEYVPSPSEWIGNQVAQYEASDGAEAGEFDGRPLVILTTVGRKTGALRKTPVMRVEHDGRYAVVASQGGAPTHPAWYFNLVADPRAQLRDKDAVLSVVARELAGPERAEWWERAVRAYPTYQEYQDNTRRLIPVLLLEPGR

[1] = target: T3, Ddn (deazaflavin-dependent nitroreductase, Rv3547) (Mycobacterium tuberculosis, UniProt P9WP15); experiment: cocrystal structures (Holo-1 […] Å, Holo-2 […] Å); Trp fluorescence quenching Kd; HSQC NMR; parameters: […]; full-length Ddn / MBP-Ddn fusion (Kd)
T3 sequence (P9WP15 whole entry, the tested form may be a part): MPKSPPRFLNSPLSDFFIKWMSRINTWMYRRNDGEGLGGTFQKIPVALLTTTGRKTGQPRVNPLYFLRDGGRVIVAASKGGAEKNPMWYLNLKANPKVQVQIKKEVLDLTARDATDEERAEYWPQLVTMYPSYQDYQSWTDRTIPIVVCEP

[2] = target: T3, Ddn (deazaflavin-dependent nitroreductase, Rv3547); experiment: intrinsic tryptophan fluorescence quenching; also steady-state kinetics (KM […]); parameters: full-length Ddn / MBP-Ddn fusion

| Compound | crystal structure, 1.50 Å (nfa18080) | cocrystal structure, 1.80 Å; HSQC NMR (nfa33440) | Kd [1] [µM] | Kd [2] [µM] |
| --- | --- | --- | --- | --- |
| C[C@H](OP(=O)(O)OC[C@@H](O)[C@@H](O)[C@@H](O)Cn1c2nc(=O)[nH]c(=O)c-2cc2ccc(O)cc21)C(=O)N[C@@H](CCC(=O)N[C@@H](CCC(=O)O)C(=O)O)C(=O)O [F420] | nfa18080 from N. farcinica, was solved by X-ray crystallography in the presence of F420 | a cocrystal of nfa33440 with F420 confirmed that the overall structure and coenzyme binding are very similar | 1 | – |
| O=[N+]([O-])c1cn2c(n1)OC[C@@H](OCc1ccc(OC(F)(F)F)cc1)C2 [PA-824, (6S)-2-nitro-6-[4-(trifluoromethoxy)benzyl]oxy-6,7-dihydro-5H-imidazo[2,1-b][1,3]oxazine] | – | – | – | 31 |
